The target of experiment [1] is Adenosylhomocysteinase (Bos taurus). Put plainly: Evaluated for the 50% inhibition of bovine-liver S-Adenosyl-homocysteine (AdoHcy) hydrolase.
For experiment [2] the target is unchanged. The description is as above. This is another data set of the same source.

The values below come from BindingDB's records for doi:10.1021/jm00117a011 (University of Kansas, 1988).

For orientation: Ki means the dissociation constant of the complex between target and ligand, obtained from inhibition or displacement. Low values mean a stronger hold on the target, high ones a looser hold on the target. For `Nc1nccc2c1ncn2C/C=C\[C@@H](O)CO` [5-(4-Amino-imidazo[4,5-c]pyridin-1-yl)-pent-3-ene-1,2-diol], the Ki in experiment [1] is 0.09 µM.

Regarding `Nc1ncnc2c1ncn2C/C=C/CO`, affinity in experiment [1] was put at a Ki of 0.33 µM.

In the case of `Nc1ncnc2c1ncn2C/C=C\[C@@H](O)CO` [5-(6-Amino-purin-9-yl)-pent-3-ene-1,2-diol], the Ki in experiment [1] stood at 0.2 µM.

Compound `C/C(=C/Cn1cnc2c(N)ncnc21)CO` [4-(6-Amino-purin-9-yl)-2-methyl-but-2-en-1-ol] displayed an inhibition constant Ki in experiment [1] of 0.17 µM.

As usually defined, the IC50 is the concentration needed to halve the response being measured. As to `Nc1ncnc2c1ncn2C/C=C/C(O)CO` (stereo not given) [5-(6-Amino-purin-9-yl)-pent-3-ene-1,2-diol], the half-maximal inhibitory concentration (IC50) in experiment [2] was found to be 0.95 µM.

`Nc1ncnc2c1ncn2C/C=C(\CO)[C@@H](O)CO` yielded a Ki in experiment [1] of over 1 µM.

With `C/C(=C\Cn1cnc2c(N)ncnc21)CO` [4-(6-Amino-purin-9-yl)-2-methyl-but-2-en-1-ol], the affinity in experiment [1] corresponds to a Ki of 0.5 µM.

`Nc1nccc2c1ncn2C/C=C/CO` [4-(4-Amino-imidazo[4,5-c]pyridin-1-yl)-but-2-en-1-ol] registered an IC50 in experiment [2] of 1.23 µM.

`CC(C)=CCn1cnc2c(N)ncnc21` [9-(3-Methyl-but-2-enyl)-9H-purin-6-ylamine]: it took 0.93 µM to reach half-maximal inhibition in experiment [2] (IC50).

Regarding `Nc1nccc2c1ncn2CC=C(CO)CO` [2-[2-(4-Amino-imidazo[4,5-c]pyridin-1-yl)-ethylidene]-propane-1,3-diol], the affinity in experiment [1], expressed as Ki, was 0.166 µM.

`Nc1ncnc2c1ncn2C/C=C\CO` displayed an inhibition constant Ki in experiment [1] of 0.125 µM.

In experiment [1], `Nc1nccc2c1ncn2CC#CCO` [4-(4-Amino-imidazo[4,5-c]pyridin-1-yl)-but-2-yn-1-ol] registered an inhibitory constant (Ki) of 0.16 µM.

On to `Nc1ncnc2c1ncn2CC#CCO`, for which the IC50 in experiment [2] worked out at 1 µM.

Take `Nc1ncnc2c1ncn2CC=C(CO)CO` [2-[2-(6-Amino-purin-9-yl)-ethylidene]-propane-1,3-diol]: affinity in experiment [1] was put at a Ki of 0.11 µM.

Regarding `Nc1nccc2c1ncn2C/C=C\CO` [4-(4-Amino-imidazo[4,5-c]pyridin-1-yl)-but-2-en-1-ol], in experiment [1], the inhibition constant Ki amounted to 0.2 µM. Against the preceding compound, the Ki is about 1.8-fold higher.
